From article PMC6097915 (ACS chemical biology, 2018)
In brackets after ≈: the same amount, converted by molar mass. Ends that are not written are not given here.

system: WT MG1655 E. coli; assay type: cell-based; conditions: 6-hr period, aerated EZRDM medium, 30°C, by OD, successive two-fold dilutions in 96 well plates

| Compound | MIC (minimum inhibitory concentration) [µM] |
| --- | --- |
| CC[C@H](C)[C@H](NC(=O)[C@H](CCCCN)NC(=O)[C@H](CCC(=O)O)NC(=O)[C@H](CCCCN)NC(=O)[C@H](CO)NC(=O)[C@H](CCCCN)NC(=O)[C@H](CCCNC(=N)N)NC(=O)[C@H](Cc1ccccc1)NC(=O)[C@H](Cc1ccccc1)NC(=O)[C@H](CC(=O)O)NC(=O)CNC(=O)[C@H](CC(C)C)NC(=O)[C@@H](N)CC(C)C)C(=O)NCC(=O)N[C@@H](CCCCN)C(=O)N[C@@H](CCC(=O)O)C(=O)N[C@@H](Cc1ccccc1)C(=O)N[C@@H](CCCCN)C(=O)N[C@@H](CCCNC(=N)N)C(=O)N[C@H](C(=O)N[C@H](C(=O)N[C@@H](CCC(N)=O)C(=O)N[C@@H](CCCNC(=N)N)C(=O)N[C@H](C(=O)N[C@@H](CCCCN)C(=O)N[C@@H](CC(=O)O)C(=O)N[C@@H](Cc1ccccc1)C(=O)N[C@@H](CC(C)C)C(=O)N[C@@H](CCCNC(=N)N)C(=O)N[C@@H](CC(N)=O)C(=O)N[C@@H](CC(C)C)C(=O)N[C@H](C(=O)N1CCC[C@H]1C(=O)N[C@@H](CCCNC(=N)N)C(=O)N[C@H](C(=O)N[C@@H](CCC(=O)O)C(=O)N[C@@H](CO)C(=O)O)[C@@H](C)O)C(C)C)[C@@H](C)CC)C(C)C)[C@@H](C)CC [LL-37] | 4 (≈ 18 µg/mL) |
| KWKLFKKIEKVGQNIRDGII-KAGPAVAVVGQATQIAK-NH2 [Cecropin A] | 0.9 |
| KWKLFKKIGAVLKVL-NH2 [CM15] | 5 |
